Structures are written as SMILES.

T1 sequence (P23458 875-1153 limits assumed): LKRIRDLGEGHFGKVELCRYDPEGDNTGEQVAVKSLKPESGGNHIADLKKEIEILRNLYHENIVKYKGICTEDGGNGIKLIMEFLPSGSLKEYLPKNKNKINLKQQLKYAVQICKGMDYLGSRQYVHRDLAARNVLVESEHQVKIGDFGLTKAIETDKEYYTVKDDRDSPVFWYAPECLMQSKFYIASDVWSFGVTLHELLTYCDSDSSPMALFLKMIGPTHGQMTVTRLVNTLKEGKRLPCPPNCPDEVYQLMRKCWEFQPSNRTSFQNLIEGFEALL

This experiment concerns the target T1, Jak1 (Homo sapiens, UniProt P23458).
T1 construct: using a recombinant purified GST-tagged catalytic domain for each enzyme; GST; purchased Invitrogen M4290
In words: Jak Biochemical HTRF Assay (Jak1). To be noted: IC50 class, recombinant GST-tagged catalytic domain, read-out: Jak1 activity. The source says:
Compounds of formula I can be prepared according to the general procedures described in the Schemes and Examples herein, using appropriate materials. Representative compounds of the present invention are exemplified herein below. The compounds exemplified are not, however, to be construed as limiting the scope of the invention in any manner. The examples further illustrate details for the preparation of the compounds of the present invention. Those skilled in the art will readily understand that known variations of protecting groups, of reagents, as well as of the conditions and processes of the following preparative procedures, can be used to prepare these compounds. It is also understood that whenever a chemical reagent is not commercially available, such a chemical reagent can be readily prepared by those skilled in the art by either following or adapting known methods described in the literature or described herein. Chiral analogs were prepared via incorporation of chiral reagents or obtained after chiral chromatography separation of a racemically generated analog. All temperatures are degrees Celsius unless otherwise noted. Mass spectra (MS) were measured either by electrospray ion-mass spectroscopy (ESMS) or by atmospheric pressure chemical ionization mass spectroscopy (APCI). Jak1 data were obtained using the in vitro assay described below.
Jak Biochemical HTRF Assay Protocol
The ability of compounds to inhibit the activity of Jak1, Jak2, Jak3, and Tyk2 was measured using a recombinant purified GST-tagged catalytic domain for each enzyme (Invitrogen Jak1 #M4290, […]) in an HTRF format biochemical assay. The reactions employed a common peptide substrate, LCB-EQEDEPEGDYFEWLW-NH2 (in-house). The basic assay protocol is as follows: First, […] of diluted compounds in DMSO were dispensed into the wells of a dry 384-well Black plate (Greiner #781076) using a Labcyte Echo 555 acoustic dispenser. Subsequent reagent additions employed an Agilent Bravo. Next, 18 μL, of 1.11X enzyme and 1.11X substrate in 1X assay buffer (Invitrogen kinase buffer #PV3189, 2 mM DTT, 0.05% BSA) were added to the wells and shaken and then preincubated for 30 minutes at room temperature to allow compound binding to equilibrate. After equilibration, 2 μL of 10X ATP in 1X assay buffer was added to initiate the kinase reaction and the plates were shaken and then incubated at room temperature for 120 minutes. At the end of the incubation, 20 μL of 2X stop buffer (streptavidin-Dylight (Thermo #21845), Eu-tagged pY20 antibody (Perkin Elmer #AD0067), EDTA, HEPES, and Triton) was added to quench the reaction. Plates were shaken and centrifuged and then incubated 60 minutes at room temperature and then read on a Perkin Elmer Envision (λex=337 nm, λem=665 and 615 nm, TRF delay time=20 μs). HTRF signal=10,000*665 nm reading/615 nm reading. After normalization to untreated controls, the percent inhibition of the HTRF signal at each compound concentration was calculated. The plot of percent inhibition versus the log of compound concentration was fit with a 4-parameter dose response equation to calculate IC50 values.
(Time-resolved FRET reads energy transfer from a long-lived donor to a nearby acceptor.)
As for `O=C(OC(CCN1CCOCC1)c1ccccc1)N1CCC[C@@H]2C1CCN2c1ncnc2[nH]ccc12` (mixture of isomers) [Example 8-3, (1R and 1S)-3-(morpholin-4-yl)-1-phenylpropyl (3aR,7aR)-1-(7H-pyrrolo[2,3-d]pyrimidin-4-yl)octahydro-4-pyrrolo[3,2-b]pyridine-4-carboxylate], the IC50 lay in the range of 0.1 to 1 µM.
The figure for `CC(Cc1ccccc1)C(=O)N1CCC[C@@H]2[C@H]1CCN2c1ncnc2[nH]ccc12` (mixture of isomers) [Example 29-56, (2S and 2R)-2-methyl-3-phenyl-1-[(3aR,7aR)-1-(7H-pyrrolo[2,3-d]pyrimidin-4-yl)octahydro-4H-pyrrolo[3,2-b]pyridine-4-yl]propan-1-one] is 0.01 to 0.1 µM.
Regarding `O=C(OCc1ccccc1)N1CCCC2C1CCN2c1ncnc2[nH]ccc12` (racemic) [Example 1, (3aS,7aS and 3aR,7aR) benzyl 1-(7H-pyrrolo[2,3-d]pyrimidin-4-yl)octahydro-4H-pyrrolo[3,2-b]-pyridine-4-carboxylate], the IC50 is 0.01 to 0.1 µM.
`CCCCOC(=O)N1CCCC2C1CCN2c1ncnc2[nH]ccc12` (racemic) [Example 3-3, butyl 1-(7H-pyrrolo[2,3-d]pyrimidin-4-yl)octahydro-4H-pyrrolo[3,2-b]pyridine-4-carboxylate]: the IC50 was in the range of 0.01 to 0.1 µM.
Take `CCCCC(=O)N1CCCC2C1CCN2c1ncnc2[nH]ccc12` (racemic) [Example 29-2, 4-(4-pentanoyloctahydro-1H-pyrrolo[3,2-b]pyridin-1-yl)-7H-pyrrolo[2,3-d]pyrimidine]: the IC50 lay within 0.01 to 0.1 µM.
On to `O=C(c1ccccc1)N1CCCC2C1CCN2c1ncnc2[nH]ccc12` (racemic) [Example 29-3, 4-[4-(phenylcarbonyl)octahydro-1H-pyrrolo[3,2-b]pyridin-1-yl]-7H-pyrrolo[2,3-d]-pyrimidine], for which the IC50 lay in the range of 0.01 to 0.1 µM.
The figure for `CC(C(=O)N1CCC[C@@H]2[C@H]1CCN2c1ncnc2[nH]ccc12)N1CCOCC1` (mixture of isomers) [Example 29-43, 4-[(3aR,7aR)-4-(2-morpholin-4-ylpropanoyl)octahydro-1H-pyrrolo[3,2-b]pyridin-1-yl]7H-pyrrolo[2,3-d]pyrimidine] is 0.01 to 0.1 µM; for `c1nc(N2CCC3NCCC[C@@H]32)c2cc[nH]c2n1` (single isomer, unassigned) [Enantiomer 1] it is 0.1 to 1 µM.
The figure for `O=C(OCCF)N1CCC[C@@H]2[C@H]1CCN2c1ncnc2[nH]ccc12` (single isomer, unassigned) [Example 3-30] is 0.01 to 0.1 µM; for `COCCOC(=O)N1CCC[C@@H]2[C@H]1CCN2c1ncnc2[nH]ccc12` (single isomer, unassigned) [Example 3-35] it is 0.01 to 0.1 µM; for `CN(C)CCOC(=O)N1CCC[C@@H]2[C@H]1CCN2c1ncnc2[nH]ccc12` (single isomer, unassigned) [Example 3-38] it is 0.1 to 1 µM.
The figure for `O=C(OCCOCC(F)(F)F)N1CCC[C@@H]2[C@H]1CCN2c1ncnc2[nH]ccc12` (single isomer, unassigned) [Example 3-43] is 0.01 to 0.1 µM.
As to `CCC(=O)N1CCC[C@@H]2[C@H]1CCN2c1ncnc2[nH]ccc12` (single isomer, unassigned) [Example 29-7], the IC50 lay in the range of 0.1 to 1 µM.
To `COCC(=O)N1CCC[C@@H]2[C@H]1CCN2c1ncnc2[nH]ccc12` (single isomer, unassigned) [Example 29-8] belongs 0.1 to 1 µM; to `CCS(=O)(=O)N1CCC[C@@H]2[C@H]1CCN2c1ncnc2[nH]ccc12` (single isomer, unassigned) [Example 32-3], 0.01 to 0.1 µM; to `O=S(=O)(N1CCC[C@@H]2[C@H]1CCN2c1ncnc2[nH]ccc12)C(F)(F)F` (single isomer, unassigned) [Example 32-5], 0.1 to 1 µM.
The figure for `O=S(=O)(c1ccccc1)N1CCC[C@@H]2[C@H]1CCN2c1ncnc2[nH]ccc12` (single isomer, unassigned) [Example 32-6] is 0.01 to 0.1 µM.
The figure for `O=S(=O)(Cc1ccccc1)N1CCC[C@@H]2[C@H]1CCN2c1ncnc2[nH]ccc12` (single isomer, unassigned) [Example 32-7] is 0.01 to 0.1 µM; for `O=C(OCc1cccnc1)N1CCCC2C1CCN2c1ncnc2[nH]ccc12` [Example 3-1, (3aS,7aS and 3aR,7aR) pyridin-3-ylmethyl 1-(7H-pyrrolo[2,3-d]pyrimidin-4-yl)octahydro-4H-pyrrolo[3,2-b]pyridine-4-carboxylate] it is 0.01 to 0.1 µM; for `O=C(OCc1ccc(F)cc1)N1CCCC2C1CCN2c1ncnc2[nH]ccc12` (centres unmarked) [Example 3-2, 4-fluorobenzyl 1-(7H-pyrrolo[2,3-d]pyrimidin-4-yl)octahydro-4H-pyrrolo[3,2-b]-pyridine-4-carboxylate] it is 0.01 to 0.1 µM.
Take `COc1cccc(COC(=O)N2CCCC3C2CCN3c2ncnc3[nH]ccc23)c1` (centres unmarked) [Example 3-4, 3-methoxybenzyl 1-(7H-pyrrolo[2,3-d]pyrimidin-4-yl)octahydro-4H-pyrrolo[3,2-b]-pyridine-4-carboxylate]: the IC50 is 0.01 to 0.1 µM.
On to `O=C(OCCCc1cccnc1)N1CCCC2C1CCN2c1ncnc2[nH]ccc12` (centres unmarked) [Example 3-5, 3-pyridin-3-ylpropyl 1-(7H-pyrrolo[2,3-d]pyrimidin-4-yl)octahydro-4H-pyrrolo[3,2-b]-pyridine-4-carboxylate], for which the IC50 was 0.01 to 0.1 µM.
The figure for `O=C(OCc1ccc(Cl)cc1)N1CCCC2C1CCN2c1ncnc2[nH]ccc12` (centres unmarked) [Example 3-6, 4-chlorobenzyl 1-(7H-pyrrolo[2,3-d]pyrimidin-4-yl)octahydro-4H-pyrrolo[3,2-b]-pyridine-4-carboxylate] is 0.01 to 0.1 µM; for `O=C(OCCCc1ccccc1)N1CCCC2C1CCN2c1ncnc2[nH]ccc12` (centres unmarked) [Example 3-7, 3-phenylpropyl 1-(7H-pyrrolo[2,3-d]pyrimidin-4-yl)octahydro-4H-pyrrolo[3,2-b]-pyridine-4-carboxylate] it is 0.01 to 0.1 µM; for `O=C(OCCc1ccccc1)N1CCCC2C1CCN2c1ncnc2[nH]ccc12` (centres unmarked) [Example 3-8, 2-phenylethyl 1-(7H-pyrrolo[2,3-d]pyrimidin-4-yl)octahydro-4H-pyrrolo[3,2-b]pyridine-4-carboxylate] it is 0.01 to 0.1 µM.
The figure for `O=C(OCc1cccc(F)c1)N1CCCC2C1CCN2c1ncnc2[nH]ccc12` (centres unmarked) [Example 3-9, 3-fluorobenzyl 1-(7H-pyrrolo[2,3-d]pyrimidin-4-yl)octahydro-4H-pyrrolo[3,2-b]-pyridine-4-carboxylate] is 0.01 to 0.1 µM; for `O=C(OC1CCOCC1)N1CCCC2C1CCN2c1ncnc2[nH]ccc12` (centres unmarked) [Example 3-10, tetrahydro-2H-pyran-4-yl 1-(7H-pyrrolo[2,3-d]pyrimidin-4-yl)octahydro-4H-pyrrolo[3,2-b]pyridine-4-carboxylate] it is 0.01 to 0.1 µM; for `O=C(OC1Cc2ccccc2C1)N1CCCC2C1CCN2c1ncnc2[nH]ccc12` (centres unmarked) [Example 3-11, 2,3-dihydro-1H-inden-2-yl 1-(7H-pyrrolo[2,3-d]pyrimidin-4-yl)octahydro-4H-pyrrolo[3,2-b]pyridine-4-carboxylate] it is 0.01 to 0.1 µM.
The figure for `O=C(OCc1ccccn1)N1CCCC2C1CCN2c1ncnc2[nH]ccc12` (centres unmarked) [Example 3-12, pyridin-2-ylmethyl 1-(7H-pyrrolo[2,3-d]pyrimidin-4-yl)octahydro-4H-pyrrolo[3,2-b]-pyridine-4-carboxylate] is 0.01 to 0.1 µM; for `O=C(OCc1ccncc1)N1CCCC2C1CCN2c1ncnc2[nH]ccc12` (centres unmarked) [Example 3-13, pyridin-4-ylmethyl 1-(7H-pyrrolo[2,3-d]pyrimidin-4-yl)octahydro-4H-pyrrolo[3,2-b]-pyridine-4-carboxylate] it is 0.01 to 0.1 µM.
On to `COc1ccc(COC(=O)N2CCCC3C2CCN3c2ncnc3[nH]ccc23)cc1` (centres unmarked) [Example 3-14, 4-methoxybenzyl 1-(7H-pyrrolo[2,3-d]pyrimidin-4-yl)octahydro-4H-pyrrolo[3,2-b]-pyridine-4-carboxylate], for which the IC50 lay within 0.001 to 0.01 µM.
To `O=C(OCc1ccc2ccccc2c1)N1CCCC2C1CCN2c1ncnc2[nH]ccc12` (centres unmarked) [Example 3-15, naphthalen-2-ylmethyl 1-(7H-pyrrolo[2,3-d]pyrimidin-4-yl)octahydro-4H-pyrrolo[3,2-b]pyridine-4-carboxylate] belongs 0.01 to 0.1 µM.

(Values after US8937077B2, “Bicyclic diamines as janus kinase inhibitors” (Merck Sharp & Dohme Corp., priority 2010, dated 2015).)
